# In patent publication US7524846B2, “Arylalkyl- and cycloalkylalkyl-piperazine derivatives and methods of their use” (Wyeth, priority 2003, dated 2009):
# Structures can show the parent of a compound that is named as a salt.
# Target: T1, hNET (Homo sapiens, UniProt P23975)
# T1 construct: expressed in transfected cells; host or cells: MDCK-Net6 (MDCK cells stably transfected with hNET)
# Assay: Norepinephrine (NE) uptake assay in MDCK-Net6 cells
# Format: cell-based
# Conditions: [3H]NE uptake, MDCK-Net6 cells stably transfected with human hNET; for inhibition at 1 µM: 1 μM test compound; for EC50: test range 1 to 10,000 nM
# Procedure: MDCK-Net6 cells, stably transfected with human hNET (Pacholczyk, T., R. D. Blakely, and S. G. Amara, Nature, 1991, 350(6316): p. 350-4) were cultured in growth medium containing high glucose DMEM (Gibco, Cat. No. 11995), 10% FBS (dialyzed, heat-inactivated, US Bio-Technologies, Lot FBD1129HI) and 500 μg/ml G418 (Gibco, Cat. No. 10131). Cells were plated at 300,000/T75 flask and cells were split twice weekly. The JAR cell line (human placental choriocarcinoma) was purchased from ATCC (Cat. No. HTB-144). The cells were cultured in growth medium containing RPMI 1640 (Gibco, Cat. No. 72400), 10% FBS (Irvine, Cat. No. 3000), 1% sodium pyruvate (Gibco, Cat. No. 1136) and 0.25% glucose. Cells were plated at 250,000 cells/T75 flask and split twice weekly. For all assays, cells were plated in Wallac 96-well sterile plates (PerkinElmer, Cat. No. 3983498).
# On day 1, cells were plated at 3,000 cells/well in growth medium and maintained in a cell incubator (37° C., 5% CO2). On day 2, growth medium was replaced with 200 μl of assay buffer (25 mM HEPES; 120 mM NaCl; 5 mM KCl; 2.5 mM CaCl2; 1.2 mM MgSO4; 2 mg/ml glucose (pH 7.4, 37° C.)) containing 0.2 mg/ml ascorbic acid and 10 μM pargyline. Plates containing cells with 200 μl of assay buffer were equilibrated for 10 minutes at 37° C. prior to addition of compounds. A stock solution of desipramine was prepared in DMSO (10 mM) and delivered to triplicate wells containing cells for a final test concentration of 1 μM. Data from these wells were used to define non-specific NE uptake (minimum NE uptake). Test compounds were prepared in DMSO (10 mM) and diluted in assay buffer according to test range (1 to 10,000 nM). Twenty-five microliters of assay buffer (maximum NE uptake) or test compound were added directly to triplicate wells containing cells in 200 μl of assay buffer. The cells in assay buffer with test compounds were incubated for 20 minutes at 37° C. To initiate the NE uptake, [^3H]NE diluted in assay buffer (120 nM final assay concentration) was delivered in 25 μl aliquots to each well and the plates were incubated for 5 minutes (37° C.). The reaction was terminated by decanting the supernatant from the plate. The plates containing cells were washed twice with 200 μl assay buffer (37° C.) to remove free radioligand. The plates were then inverted, left to dry for 2 minutes, then reinverted and air-dried for an additional 10 minutes. The cells were lysed in 25 μl of 0.25 N NaOH solution (4° C.), placed on a shake table and vigorously shaken for 5 minutes. After cell lysis, 75 μl of scintillation cocktail was added to each well and the plates were sealed with film tape. The plates were returned to the shake table and vigorously shaken for a minimum of 10 minutes to ensure adequate partitioning of organic and aqueous solutions. The plates were counted in a Wallac Microbeta counter (PerkinElmer) to collect the raw cpm data.
# For each experiment, a data stream of cpm values collected from the Wallac Microbeta counter was downloaded to a Microsoft Excel statistical application program. Calculations of EC50 values were made using the transformed-both-sides logistic dose response program written by Wyeth Biometrics Department. The statistical program uses mean cpm values from wells representing maximum binding or uptake (assay buffer) and mean cpm values from wells representing minimum binding or uptake ((1 μM desipramine (hNET) or 1 μM paroxetine (hSERT)). Estimation of the EC50 value was completed on a log scale and the line was fit between the maximum and minimum binding or uptake values. All graphic data representation was generated by normalizing each data point to a mean percent based on the maximum and minimum binding or uptake values. The EC50 values reported from multiple experiments were calculated by pooling the raw data from each experiment and analyzing the pooled data as one experiment.
# T1 sequence (P23975 whole entry): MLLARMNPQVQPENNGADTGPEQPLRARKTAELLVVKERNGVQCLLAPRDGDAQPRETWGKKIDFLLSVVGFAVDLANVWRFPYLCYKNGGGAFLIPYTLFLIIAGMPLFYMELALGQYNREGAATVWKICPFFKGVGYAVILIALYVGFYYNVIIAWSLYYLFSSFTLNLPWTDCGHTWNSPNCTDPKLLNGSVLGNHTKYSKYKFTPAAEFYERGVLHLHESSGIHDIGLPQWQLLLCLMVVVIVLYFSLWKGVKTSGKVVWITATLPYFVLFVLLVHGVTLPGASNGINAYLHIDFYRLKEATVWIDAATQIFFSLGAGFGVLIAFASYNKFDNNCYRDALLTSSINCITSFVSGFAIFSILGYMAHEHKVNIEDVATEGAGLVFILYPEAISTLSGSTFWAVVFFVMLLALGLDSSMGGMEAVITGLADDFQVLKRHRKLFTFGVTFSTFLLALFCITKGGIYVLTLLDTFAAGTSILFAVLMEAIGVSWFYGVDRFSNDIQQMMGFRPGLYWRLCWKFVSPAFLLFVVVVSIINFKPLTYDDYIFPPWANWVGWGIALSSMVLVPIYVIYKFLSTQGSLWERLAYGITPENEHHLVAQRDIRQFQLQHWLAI
Structure (SMILES),inhibition at 1 µM [%],EC50 [nM]
"COc1ccc2cc(CN3CCN(CC(c4cccc(Cl)c4)C4(O)CCCCC4)CC3)ccc2c1 (stereo not drawn) [Example 117, 1-(1-(3-chlorophenyl)-2-{4-[(6-methoxy-2-naphthyl)methyl]piperazin-1-yl}ethyl)cyclohexanol dihydrochloride]",87,61
"OC1(C(CN2CCN(CC3CC3)CC2)c2cccc(Cl)c2)CCCCC1 (stereo not drawn) [Example 118, 1-{1-(3-chlorophenyl)-2-[4-(cyclopropylmethyl)piperazin-1-yl]ethyl}cyclohexanol dihydrochloride]",97,57
"OC1(C(CN2CCN(CC3CC=CCC3)CC2)c2cccc(Cl)c2)CCCCC1 (stereo not drawn) [Example 119, 1-{1-(3-chlorophenyl)-2-[4-(cyclohex-3-en-1-ylmethyl)piperazin-1-yl]ethyl}cyclohexanol dihydrochloride]",97,110
"OC1CCCC(CN2CCN(CC(c3cccc(Cl)c3)C3(O)CCCCC3)CC2)O1 (stereo not drawn) [Example 120, 6-({4-[2-(3-chlorophenyl)-2-(1-hydroxycyclohexyl)ethyl]piperazin-1-yl}methyl)tetrahydro-2H-pyran-2-ol dihydrochloride]",97,130
"CC(CCN1CCN(CC(c2cccc(Cl)c2)C2(O)CCCCC2)CC1)c1ccccc1 (stereo not drawn) [Example 121, 1-{1-(3-chlorophenyl)-2-[4-(3-phenylbutyl)piperazin-1-yl]ethyl}cyclohexanol dihydrochloride]",97,22
"OC1(C(CN2CCN(CCc3ccccc3)CC2)c2cccc(Cl)c2)CCCCC1 (stereo not drawn) [Example 122, 1-{1-(3-chlorophenyl)-2-[4-(2-phenylethyl)piperazin-1-yl]ethyl}cyclohexanol dihydrochloride]",96,75
"OC1(C(CN2CCN(Cc3cccc(Oc4ccccc4)c3)CC2)c2cccc(Cl)c2)CCCCC1 (stereo not drawn) [Example 123, 1-{1-(3-chlorophenyl)-2-[4-(3-phenoxybenzyl)piperazin-1-yl]ethyl}cyclohexanol dihydrochloride]",96,290
"OC1(C(CN2CCN(Cc3ccc4ccccc4c3)CC2)c2cccc(Cl)c2)CCCCC1 (stereo not drawn) [Example 124, 1-{1-(3-chlorophenyl)-2-[4-(2-naphthylmethyl)piperazin-1-yl]ethyl}cyclohexanol dihydrochloride]",94,190
"OC1(C(CN2CCN(Cc3ccoc3)CC2)c2cccc(Cl)c2)CCCCC1 (stereo not drawn) [Example 125, 1-{1-(3-chlorophenyl)-2-[4-(3-furylmethyl)piperazin-1-yl]ethyl}cyclohexanol dihydrochloride]",93,120
"OC1(C(CN2CCN(CC3CCCCC3)CC2)c2cccc(Cl)c2)CCCCC1 (stereo not drawn) [Example 126, 1-{1-(3-chlorophenyl)-2-[4-(cyclohexylmethyl)piperazin-1-yl]ethyl}cyclohexanol dihydrochloride]",93,130
"OC1(C(CN2CCN(Cc3ccnc4ccccc34)CC2)c2cccc(Cl)c2)CCCCC1 (stereo not drawn) [Example 127, 1-{1-(3-chlorophenyl)-2-[4-(quinolin-4-ylmethyl)piperazin-1-yl]ethyl}cyclohexanol dihydrochloride]",86,92
"CCc1ccc(CN2CCN(CC(c3cccc(Cl)c3)C3(O)CCCCC3)CC2)o1 (stereo not drawn) [Example 128, 1-(1-(3-chlorophenyl)-2-{4-[(5-ethyl-2-furyl)methyl]piperazin-1-yl}ethyl)cyclohexanol dihydrochloride]",83,490
"CC(CN1CCN(CC(c2cccc(Cl)c2)C2(O)CCCCC2)CC1)c1ccccc1 (stereo not drawn) [Example 129, 1-{1-(3-chlorophenyl)-2-[4-(2-phenylpropyl)piperazin-1-yl]ethyl}cyclohexanol dihydrochloride]",81,430
"OC1(C(CN2CCN(Cc3cc4ccccc4o3)CC2)c2cccc(Cl)c2)CCCCC1 (stereo not drawn) [Example 130, 1-[2-[4-(1-benzofuran-2-ylmethyl)piperazin-1-yl]-1-(3-chlorophenyl)ethyl]cyclohexanol dihydrochloride]",79,890
"OC1(C(CN2CCN(Cc3ccc(OCc4ccccc4)cc3)CC2)c2cccc(Cl)c2)CCCCC1 (stereo not drawn) [Example 131, 1-[2-{4-[4-(benzyloxy)benzyl]piperazin-1-yl}-1-(3-chlorophenyl)ethyl]cyclohexanol dihydrochloride]",78,170
"OC1(C(CN2CCN(Cc3ccc(Oc4ccccc4)cc3)CC2)c2cccc(Cl)c2)CCCCC1 (stereo not drawn) [Example 132, 1-{1-(3-chlorophenyl)-2-[4-(4-phenoxybenzyl)piperazin-1-yl]ethyl}cyclohexanol dihydrochloride]",77,70
"OC1(C(CN2CCN(Cc3ccncc3)CC2)c2cccc(Cl)c2)CCCCC1 (stereo not drawn) [Example 133, 1-{1-(3-chlorophenyl)-2-[4-(pyridin-4-ylmethyl)piperazin-1-yl]ethyl}cyclohexanol dihydrochloride]",77,460
"OC1(C(CN2CCN(Cc3cccnc3)CC2)c2cccc(Cl)c2)CCCCC1 (stereo not drawn) [Example 134, 1-{1-(3-chlorophenyl)-2-[4-(pyridin-3-ylmethyl)piperazin-1-yl]ethyl}cyclohexanol dihydrochloride]",69,930
